Values after ≈ are worked out from the molar mass of the structure shown.
Legend:
[1] = system: cell lines HRTEC, HaCat, HDF, HEK 293, HCAEC; test: Acute cytotoxicity, resazurin assay, summary over cell lines; type: cell-based, human; conditions: 72 h
Description: To test the acute cytotoxicity of the compounds, the following cell lines were used: primary human renal tubular epithelial cells (HRTEC; Evercyte, Vienna, Austria); human keratinocytes (HaCat; Thermo Fisher Scientific, Waltham, MA, USA); human dermal fibroblasts (HDF; Merck, Kenilworth, NJ, USA); human epithelial kidney cells (HEK 293; ATCC, Manassas, VI, USA); primary human coronary artery endothelial cells (HCAEC; ATCC, Manassas, VI, USA). The cell lines were maintained in a proper cultivation medium—HaCat, HDF, and Hek 293 in DMEM; HRTEC in VCB; HCAEC in ProxUp. The cytotoxicity experiment was realized according to Tran et al.. Briefly, the cells were counted by the Cellometer Auto T4 (Nexcelom Bioscience, Lawrence, MA, USA), and the cell suspension containing a cell density of 10^5 cells/mL was split into the 96-well plate, with 100 µL per well. The plates were then incubated for 24 h at 37 °C in a humidified atmosphere of 5% CO2. Then, the plates were washed three times with PBS, and the tested natural compounds were added using binary dilution in a proper medium. After 72 h of incubation, the cell viability was tested by resazurin assay. The fluorescence was measured by a SpectraMax i3× microplate reader (San Jose, CA, USA) at a wavelength of 560 nm excitation/590 nm emission.
The cytotoxicity results are expressed as the average IC50 ± standard error of the mean (SEM). […]

[2] = system: S. Enteritidis ATCC 13076; test: CLSM analysis, biofilm prevention; type: cell-based, Salmonella enterica Enteritidis; conditions: 24 h exposure; for Thickness (µm) subCBM80: substance at subinhibitory concentration, mean ± SD
Description: Biofilm prevention and removal analyses were performed using previously determined minimum inhibitory and subinhibitory concentrations for metabolic activity (MICBM80, subCBM80; MICMPB80, subCMPB80) of NAC, RLs, and UA specific for each tested strain. Selected concentrations were used to evaluate the inhibition of biofilm formation (biofilm prevention) and the reduction in previously formed biofilms (biofilm removal) for the same set of microorganisms, with the exception of S. Infantis, which was excluded from the analysis due to its inability to form biofilm in the selected microtiter plate. Biofilm prevention and removal were observed using CLSM with specific staining to distinguish between live and membrane-compromised cells. Images were analyzed to evaluate (i). the total volume of the biomass, (ii). ratios of live and membrane-compromised cells, and (iii). to calculate biofilm volume reduction for individual organisms after the respective treatment types. The total biofilm volume was normalized by the area of the well and expressed as an average biofilm thickness. Complete data are provided in Supplementary Materials (Tables S1–S8).
For both inhibition and reduction of biofilms, overnight cultures from BHI were diluted in TSB + 1% Glc to reach an absorbance of 0.08 to 0.1 at 625 nm. The inoculum (150 µL) was transferred into wells of the 96-well flat-bottomed Ibidiμ-Plate (Ibidi, Gräfelfing, Germany) and mixed with 150 µL of each of the three tested substances in technical quadruplicates, followed by incubation at 37 °C for 24 h. Simultaneously, the prepared bacterial suspensions were inoculated to an additional microtiter plate (200 µL) and allowed to form biofilm overnight (18 h at 37 °C). After the incubation, the content of the well was drained off, and 200 µL of each of the three tested substances was added to the plate, which was then incubated for an additional 20 h. […]
All collected images were statistically evaluated to quantify biovolume utilizing the surface estimation procedure described in Parker et al.. […]

Row | SMILES | IC50 ([1]; Homo sapiens, read-out: IC50, range over cell lines) [µg/mL] | Thickness (µm) MICBM80 ([2]; substance at its MICBM80, mean ± SD) [µm] | Thickness (µm) subCBM80 [2] [µm] | IC50, range over cell lines [1] [µg/mL]
1 | CC(=O)N[C@@H](CS)C(=O)O [NAC, N-Acetyl-L-cysteine] | 460 to 4020 (≈ 2820 to 24600 µM) | 117 ± 41.6 | 137 ± 69.6 | 
2 | CC(=O)c1c(O)c(C)c(O)c2c1OC1=CC(=O)C(C(C)=O)C(=O)C12C (single isomer, unassigned; (+)) [UA, (+)-usnic acid] |  |  | 77.6 ± 39.1 | 0.03 to 4.35
